Assay results: patent US11964971B2, “Methods and compositions for modulating splicing” (Skyhawk Therapeutics, Inc., priority 2019, dated 2024)

Experiments:
SMN protein = SMN protein assay (MSD) in SMA patient fibroblasts (GM03813); format: cell-based, human
Protocol: Compounds are tested on spinal muscular atrophy (SMA) patient fibroblasts (GM03813, Coriell) at doses ranging from 2.5 μM to 0.6 nM. 7000 cells/well are seeded in 96-well plates. Compounds are incubated for 48 hours and the cells were lysed with 100 μL of lysis buffer. 20 μL of lysate is used for SMN protein measurement by Mesoscale Discovery (MSD) assay developed by PharmOptima (Michigan). A standard curve prepared with SMN protein ranging from […] is used in each MSD plate to calculate the absolute SMN protein amount in each sample.

[1] = tested on: MDR1-MDCK cell monolayers; details: dog, MDCK-MDR1, 120 min, 5 μM, pH 7.4
MDR1 = assay: in vitro; details: dog; for Papp B→A at 120 min, 5 μM: MDCK-MDR1, pH 7.4, MDCK-MDR1: Papp B-A (10^−6, cm/s); for Papp A→B at 120 min, 5 μM: MDCK-MDR1, pH 7.4, MDCK-MDR1: Papp A-B (10^−6, cm/s)
MDR1 (P-gp) = assay: MDCK-MDR1 permeability assay, blood-brain-barrier penetration potential; details: dog, MDCK-MDR1, pH 7.4, MDCK-MDR1 Efflux Ratio

SMILES | EC50 (SMN protein) [nM] | MDCK-MDR1: % Recov A-B (%) [1] [%] | Papp B→A at 120 min, 5 μM (MDR1) [×10⁻⁶ cm/s] | efflux ratio at 120 min, 5 μM (MDR1 (P-gp)) | MDCK-MDR1: % Recov B-A (%) [1] [%] | Papp A→B at 120 min, 5 μM (MDR1) [×10⁻⁶ cm/s]
CN(c1cnc(-c2cc(F)c(-c3ccn(C)c(=O)c3)cc2O)cn1)[C@@H]1CC2CC[C@H](N2)[C@@H]1F (single isomer, unassigned) [Compound 13E1] | 101 to 500 | 454 | 106 | 49 | – | –
CN(C)C(=O)c1cc(O)c(-c2cnc(N(C)[C@H]3C[C@@H]4CCC(N4)[C@H]3F)cn2)cc1F (single isomer, unassigned) [Compound 14E2] | 501 to 10000 | 87 | 59.1 | 65 | 88 | 0.91
CN(c1cnc(-c2ccc(C3=CC(=O)NC3)cc2O)cn1)[C@@H]1CC2CC[C@H](N2)[C@@H]1F (single isomer, unassigned) [Compound 78E1] | 501 to 10000 | 81 | 41 | 53 | 85 | 0.77
Cc1nc(-c2ccc(-c3cnc(N(C)[C@@H]4CC5CC[C@H](N5)[C@@H]4F)cn3)c(O)c2)no1 (single isomer, unassigned) [Compound 69E1] | 501 to 10000 | 49 | 17.9 | 2 | 61 | 9.43
Cn1cnc(-c2cc(O)c(-c3cnc(N(C4CC4)[C@@H]4CC5CC[C@H](N5)[C@@H]4F)cn3)cc2F)cc1=O (single isomer, unassigned) [Compound 50E1] | 501 to 10000 | 82 | 46.4 | 29 | 92 | 1.59
CN(c1cnc(-c2cc(F)c(-c3ccn(C)c(=O)c3)cc2O)cn1)[C@@H]1CC2CCC[C@H](N2)[C@@H]1F (single isomer, unassigned) [Compound 12E1] | 101 to 500 | 78 | 54.9 | 28 | 83 | 1.99
COc1cc(-c2ccc(-c3cnc(N(C4CC4)[C@H]4C[C@@H]5CCC(N5)[C@H]4F)cn3)c(O)c2)ncn1 (single isomer, unassigned) [Compound 56E2] | 101 to 500 | 14 | 4.55 | 2 | 48 | 2.12
COc1cc(-c2ccc(-c3cnc(N(C)[C@H]4C[C@@H]5CCC(N5)[C@H]4F)cn3)c(O)c2)cc(F)n1 (single isomer, unassigned) [Compound 44E2] | 101 to 500 | 13 | 9.1 | 3 | 52 | 3.33
Cn1cc(-c2cc(O)c(-c3cnc(N(C4CC4)[C@H]4C[C@@H]5CCC(N5)[C@H]4F)cn3)cc2F)cn1 (single isomer, unassigned) [Compound 35E2] | 501 to 10000 | 32 | 17.9 | 4 | 61 | 4.64
CN(c1cnc(-c2ccc(-c3cnn(CF)c3)cc2O)cn1)[C@H]1C[C@@H]2CCC(N2)[C@H]1F (single isomer, unassigned) [Compound 42E2] | 501 to 10000 | 44 | 31.8 | 5 | 60 | 5.95
CN(c1cnc(-c2ccc(-c3cnn(C)c3)cc2O)cn1)[C@@H]1CC2N[C@H](C1)CC2(F)F (single isomer, unassigned) [Compound 10E2] | 101 to 500 | 64 | 23.7 | 1 | 67 | 28.7
CN(c1cnc(-c2cc(F)c(-c3cnn(C)c3)cc2O)cn1)[C@@H]1C[C@@]2(C)CC[C@](C)(N2)[C@@H]1F [Compound 58E1, 4-fluoro-2-(5-(((1S,2R,3R,5R)-2-fluoro-1,5-dimethyl-8-azabicyclo[3.2.1]octan-3-yl)(methyl)amino)pyrazin-2-yl)-5-(1-methyl-1H-pyrazol-4-yl)phenol] | 101 to 500 | 37 | 22.1 | 3 | 64 | 7.67
Cn1ccc(-c2cc(O)c(-c3cnc(N(C4CC4)[C@H]4C[C@@H]5CCC(N5)[C@H]4F)cn3)cc2F)cc1=O (single isomer, unassigned) [Compound 38E2] | 501 to 10000 | 82 | 57.7 | 33 | 82 | 1.75
CN(c1cnc(-c2ccc(-c3ccn(C)c(=O)c3)cc2O)cn1)[C@H]1C[C@@H]2CCC(N2)[C@H]1F (single isomer, unassigned) [Compound 45E2] | 51 to 100 | 87 | 65.6 | 35 | 87 | 1.9
Cn1cnc(-c2cc(O)c(-c3cnc(N(C4CC4)[C@H]4C[C@@H]5CCC(N5)[C@H]4F)cn3)cc2F)cc1=O (single isomer, unassigned) [Compound 50E2] | 501 to 10000 | 81 | 49.3 | 38 | 90 | 1.29
Cn1cnc(-c2ccc(-c3cnc(N(C4CC4)[C@H]4C[C@@H]5CCC(N5)[C@H]4F)cn3)c(O)c2)cc1=O (single isomer, unassigned) [Compound 55E2] | 501 to 10000 | 71 | 42.2 | 19 | 76 | 2.25
COc1cc(-c2ccc(-c3cnc(N(C4CC4)[C@H]4C[C@@H]5CCC(N5)[C@H]4F)cn3)c(O)c2)ccn1 (single isomer, unassigned) [Compound 51E2] | 501 to 10000 | 11 | 2.99 | 2 | 34 | 1.27
CN(c1cnc(-c2cc(F)c(-c3cnn(C)c3)cc2O)cn1)[C@@H]1CC2CC(F)(F)[C@@H](C1)N2 (single isomer, unassigned) [Compound 66E1] | 101 to 500 | 42 | 20.7 | 1 | 51 | 21.9
CN(c1cnc(-c2ccc(C3=CCOC3)cc2O)cn1)[C@@H]1CC2CC[C@H](N2)[C@@H]1F (single isomer, unassigned) [Compound 84E1] | 501 to 10000 | 26 | 7.82 | 3 | 59 | 3.01
Oc1cc(-n2ccnn2)c(F)cc1-c1cnc(N(C2CC2)[C@@H]2CC3CC[C@H](N3)[C@@H]2F)cn1 (single isomer, unassigned) [Compound 11E1] | 501 to 10000 | 74 | 35.9 | 7 | 83 | 5.25
Cn1cc(-c2cc(O)c(-c3cnc(N(C4CC4)[C@@H]4C[C@H]5CC[C@H](N5)[C@@H]4F)cn3)cc2F)cn1 [Compound 35E1, 2-(5-(cyclopropyl((1S,2S,3R,5R)-2-fluoro-8-azabicyclo[3.2.1]octan-3-yl)amino)pyrazin-2-yl)-4-fluoro-5-(1-methyl-1H-pyrazol-4-yl)phenol] | 501 to 10000 | 36 | 17.9 | 6 | 62 | 3
CNC(=O)/C=C/c1cc(O)c(-c2cnc(N(C3CC3)[C@@H]3C[C@@]4(C)CC[C@](C)(N4)[C@@H]3F)cn2)cc1F [Compound 79E1, (E)-3-(4-(5-(cyclopropyl((1S,2R,3R,5R)-2-fluoro-1,5-dimethyl-8-azabicyclo[3.2.1]octan-3-yl)amino)pyrazin-2-yl)-2-fluoro-5-hydroxyphenyl)-N-methylacrylamide] | 501 to 10000 | 84 | 45.3 | 27 | 88 | 1.67
O=c1cc(-c2ccc(-c3cnc(N(C4CC4)[C@H]4C[C@@H]5CCC(N5)[C@H]4F)cn3)c(O)c2)ccn1CF (single isomer, unassigned) [Compound 54E2] | 501 to 10000 | 63 | 44 | 24 | 67 | 1.81
COc1cc(-c2ccc(-c3cnc(N(C)[C@H]4C[C@@H]5CCC(N5)[C@H]4F)cn3)c(O)c2)ncn1 (single isomer, unassigned) [Compound 48E2] | 51 to 100 | 28 | 13.8 | 3 | 57 | 5.38
